According to PubChem BioAssay AID180 (DTP/NCI, 2004):
Values joined by “and” are separate entries in the source; they are usually repeats but may differ in a detail not shown here. Equal entries are not always repeated.

Test system: BDF1 mice, Adenocarcinoma 755 s.c., tumor weight T/C
Assay: NCI In Vivo Anticancer Drug Screen. Data for tumor model Adenocarcinoma 755 (subcutaneous) in B6D2F1 (BDF1) mice
Conditions: endpoint: mean tumor weight, higher = larger tumour
How it was run: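 Tumor-bearing mice receive test compound while controls get vehicle alone. Antitumor effect is scored from survival or tumor dimensions as a T/C quotient.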

[1] = dose: 200.0 mg/kg/injection, schedule: Q01DX011 (ip), vehicle: carboxymethylcellulose (CMC)
[2] = dose: 100.0 mg/kg/injection, schedule: Q01DX011 (ip), vehicle: carboxymethylcellulose (CMC)
[3] = dose: 31.0 mg/kg/injection, schedule: Q01DX011 (ip), vehicle: methylcellulose (MC)
[4] = dose: 62.0 mg/kg/injection, schedule: Q01DX011 (ip), vehicle: methylcellulose (MC)

Question: What does the source list for CO[C@@]12[C@H](COC(N)=O)C3=C(C(=O)C(C)=C(N)C3=O)N1C[C@@H]1N[C@@H]12?
Answer: T/C (dose: 0.1 mg/kg/injection, schedule: Q01DX011 (ip), vehicle: carboxymethylcellulose (CMC)): 82 % of control; T/C (dose: 0.1 mg/kg/injection, schedule: Q01DX011 (ip), vehicle: methylcellulose (MC)): 60 % of control; T/C (dose: 0.2 mg/kg/injection, schedule: Q01DX011 (ip), vehicle: carboxymethylcellulose (CMC)): 79 % of control; T/C (dose: 0.25 mg/kg/injection, schedule: Q01DX011 (ip), vehicle: carboxymethylcellulose (CMC)): 69 % of control; T/C (dose: 0.32 mg/kg/injection, schedule: Q01DX011 (ip), vehicle: carboxymethylcellulose (CMC)): 92 % of control and 116 % of control; T/C (dose: 0.5 mg/kg/injection, schedule: Q01DX011 (ip), vehicle: carboxymethylcellulose (CMC)): 17 % of control; T/C (dose: 0.5 mg/kg/injection, schedule: Q01DX011 (ip), vehicle: methylcellulose (MC)): 26 % of control; T/C (dose: 0.53 mg/kg/injection, schedule: Q01DX011 (ip), vehicle: carboxymethylcellulose (CMC)): 63 % of control and 71 % of control; T/C (dose: 0.82 mg/kg/injection, schedule: Q01DX011 (ip), vehicle: carboxymethylcellulose (CMC)): 22 % of control; T/C (dose: 1.0 mg/kg/injection, schedule: Q01DX011 (ip), vehicle: carboxymethylcellulose (CMC)): 8 % of control; T/C (dose: 1.0 mg/kg/injection, schedule: Q01DX011 (ip), vehicle: methylcellulose (MC)): 12 % of control; T/C (dose: 1.02 mg/kg/injection, schedule: Q01DX011 (ip), vehicle: carboxymethylcellulose (CMC)): 14 % of control; T/C (dose: 1.36 mg/kg/injection, schedule: Q01DX011 (ip), vehicle: carboxymethylcellulose (CMC)): 5 % of control; T/C (dose: 2.0 mg/kg/injection, schedule: Q01DX011 (ip), vehicle: carboxymethylcellulose (CMC)): 1 % of control; T/C (dose: 180.0 micrograms/kg/injection, schedule: Q01DX011 (ip), vehicle: carboxymethylcellulose (CMC)): 89 % of control; T/C (dose: 300.0 micrograms/kg/injection, schedule: Q01DX011 (ip), vehicle: carboxymethylcellulose (CMC)): 86 % of control; T/C (dose: 450.0 micrograms/kg/injection, schedule: Q01DX011 (ip), vehicle: carboxymethylcellulose (CMC)): 24 % of control and 29 % of control; T/C (dose: 512.0 micrograms/kg/injection, schedule: Q01DX011 (ip), vehicle: carboxymethylcellulose (CMC)): 87 % of control; T/C (dose: 900.0 micrograms/kg/injection, schedule: Q01DX011 (ip), vehicle: carboxymethylcellulose (CMC)): 5 % of control; T/C (dose: 1025.0 micrograms/kg/injection, schedule: Q01DX011 (ip), vehicle: carboxymethylcellulose (CMC)): 63 % of control; T/C (dose: 2050.0 micrograms/kg/injection, schedule: Q01DX011 (ip), vehicle: carboxymethylcellulose (CMC)): 8 % of control

Question: With CCC(=O)O[C@H]1CC[C@H]2[C@@H]3CC[C@H]4CC(=O)[C@H](C)C[C@]4(C)[C@H]3CC[C@]12C as the compound, how does the T/C (dose: 44.13 mg/kg/injection, schedule: Q01DX011 (sc), vehicle: steriod suspending solution) read?
Answer: The T/C was 109 % of control and 115 % of control.

Question: And the T/C (dose: 88.25 mg/kg/injection, schedule: Q01DX011 (sc), vehicle: steriod suspending solution)?
Answer: Its T/C is 156 % of control.

Question: What about the T/C (dose: 125.0 mg/kg/injection, schedule: Q01DX011 (sc), vehicle: steriod suspending solution) of the same compound?
Answer: The T/C was 101 % of control.

Question: And the T/C (dose: 353.0 mg/kg/injection, schedule: Q01DX011 (sc), vehicle: steriod suspending solution)?
Answer: Its T/C is 154 % of control.

Question: And the T/C (dose: 500.0 mg/kg/injection, schedule: Q01DX011 (sc), vehicle: steriod suspending solution)?
Answer: The T/C was 176 % of control.

Question: What about the T/C (dose: 1000.0 mg/kg/injection, schedule: Q01DX011 (sc), vehicle: steriod suspending solution) of the same compound?
Answer: The T/C was 124 % of control.

Question: Cc1cc(NC(=O)c2ccc(C(=O)Nc3ccc(N=Nc4cc(S(=O)(=O)O)c5cccc(S(=O)(=O)O)c5c4)c(C)c3)cc2)ccc1N=Nc1cc(S(=O)(=O)O)c2cccc(S(=O)(=O)O)c2c1 was tested. Which T/C (dose: 30.0 mg/kg/injection, schedule: Q01DX011 (ip), vehicle: carboxymethylcellulose (CMC)) did it give?
Answer: Its T/C is 114 % of control.

Question: For O=[N+]([O-])c1ccc(Oc2cc(Cl)c(Cl)cc2Cl)c([N+](=O)[O-])c1, which T/C (dose: 100.0 mg/kg/injection, schedule: Q01DX011 (ip), vehicle: other) is on record?
Answer: The T/C was 91 % of control.

Question: And the T/C [1]?
Answer: The T/C was 56 % of control and 74 % of control.

Question: What about the T/C (dose: 200.0 mg/kg/injection, schedule: Q01DX011 (ip), vehicle: other) of the same compound?
Answer: The T/C was 91 % of control.

Question: And the T/C (dose: 400.0 mg/kg/injection, schedule: Q01DX011 (ip), vehicle: carboxymethylcellulose (CMC))?
Answer: The T/C was 61 % of control.

Question: What about the T/C (dose: 400.0 mg/kg/injection, schedule: Q01DX011 (ip), vehicle: other) of the same compound?
Answer: Its T/C is 54 % of control.

Question: And the T/C (dose: 800.0 mg/kg/injection, schedule: Q01DX011 (ip), vehicle: carboxymethylcellulose (CMC))?
Answer: The T/C was 19 % of control.

Question: What about the T/C (dose: 800.0 mg/kg/injection, schedule: Q01DX011 (ip), vehicle: other) of the same compound?
Answer: The T/C was 33 % of control.

Question: What does the source list for Cc1cc(N=Nc2ccc(-c3ccc(N=Nc4ccc(O)c(C(=O)O)c4)cc3)cc2)c(N)c(N=Nc2ccc(C(=O)Nc3ccc4cc(S(=O)(=O)O)ccc4c3)cc2)c1N?
Answer: T/C (dose: 45.0 mg/kg/injection, schedule: Q01DX011 (ip), vehicle: carboxymethylcellulose (CMC)): 158 % of control; T/C (dose: 65.0 mg/kg/injection, schedule: Q01DX011 (ip), vehicle: carboxymethylcellulose (CMC)): 119 % of control; T/C [2]: 69 % of control; T/C (dose: 150.0 mg/kg/injection, schedule: Q01DX011 (ip), vehicle: carboxymethylcellulose (CMC)): 72 % of control

Question: Which T/C (dose: 35.0 mg/kg/injection, schedule: Q01DX011 (ip), vehicle: saline) does the source give for CC(=O)Nc1cc2c(cc1Br)-c1ccccc1C2O (stereo not given) here?
Answer: The T/C was 43 % of control.

Question: And the T/C (dose: 75.0 mg/kg/injection, schedule: Q01DX011 (ip), vehicle: saline)?
Answer: The T/C was 52 % of control.

Question: And the T/C (dose: 155.0 mg/kg/injection, schedule: Q01DX011 (ip), vehicle: saline)?
Answer: The T/C was 38 % of control.

Question: What about the T/C (dose: 210.0 mg/kg/injection, schedule: Q01DX011 (ip), vehicle: saline) of the same compound?
Answer: Its T/C is 23 % of control.

Question: With CN(C)N=Nc1ccc(C(=O)NN)cc1 as the compound, how does the T/C (dose: 75.0 mg/kg/injection, schedule: Q01DX011 (ip), vehicle: carboxymethylcellulose (CMC)) read?
Answer: Its T/C is 31 % of control.

Question: What about the T/C [2] of the same compound?
Answer: The T/C was 15 % of control.

Question: Which results are given for O=[N+]([O-])c1ccc(C=Nc2ccc3c(c2)C(Br)c2ccccc2-3)cc1 (stereo not given)?
Answer: T/C (dose: 28.0 mg/kg/injection, schedule: Q01DX011 (ip), vehicle: saline): 113 % of control; T/C (dose: 55.0 mg/kg/injection, schedule: Q01DX011 (ip), vehicle: saline): 96 % of control; T/C (dose: 110.0 mg/kg/injection, schedule: Q01DX011 (ip), vehicle: saline): 73 % of control; T/C (dose: 220.0 mg/kg/injection, schedule: Q01DX011 (ip), vehicle: saline): 40 % of control and 44 % of control; T/C (dose: 440.0 mg/kg/injection, schedule: Q01DX011 (ip), vehicle: saline): 39 % of control

Question: Which results are given for Cc1cnc(SCc2ccccc2Cl)nc1SCc1ccccc1Cl?
Answer: T/C [3]: 81 % of control; T/C [4]: 65 % of control

Question: Which results are given for O=C(O)c1cc(Cl)nc(Cl)n1?
Answer: T/C [3]: 92 % of control; T/C [4]: 103 % of control; T/C (dose: 125.0 mg/kg/injection, schedule: Q01DX011 (ip), vehicle: methylcellulose (MC)): 105 % of control

Question: How did the T/C (dose: 1.06 mg/kg/injection, schedule: Q01DX011 (ip), vehicle: carboxymethylcellulose (CMC)) turn out when [N-]=[N+]=[N-] was run?
Answer: The T/C was 114 % of control.

Question: What about the T/C (dose: 1.55 mg/kg/injection, schedule: Q01DX011 (ip), vehicle: carboxymethylcellulose (CMC)) of the same compound?
Answer: The T/C was 75 % of control.

Question: And the T/C (dose: 2.13 mg/kg/injection, schedule: Q01DX011 (ip), vehicle: carboxymethylcellulose (CMC))?
Answer: Its T/C is 61 % of control.

Question: What about the T/C (dose: 3.1 mg/kg/injection, schedule: Q01DX011 (ip), vehicle: carboxymethylcellulose (CMC)) of the same compound?
Answer: The T/C was 82 % of control.

Question: And the T/C (dose: 4.25 mg/kg/injection, schedule: Q01DX011 (ip), vehicle: carboxymethylcellulose (CMC))?
Answer: Its T/C is 80 % of control.

Question: And the T/C (dose: 6.2 mg/kg/injection, schedule: Q01DX011 (ip), vehicle: carboxymethylcellulose (CMC))?
Answer: Its T/C is 57 % of control.

Question: What about the T/C (dose: 8.5 mg/kg/injection, schedule: Q01DX011 (ip), vehicle: carboxymethylcellulose (CMC)) of the same compound?
Answer: Its T/C is 80 % of control.

Question: And the T/C (dose: 12.4 mg/kg/injection, schedule: Q01DX011 (ip), vehicle: carboxymethylcellulose (CMC))?
Answer: Its T/C is 80 % of control.

Question: What does the source list for c1ccc2nc(-c3cc4ccccc4s3)ccc2c1?
Answer: T/C (dose: 133.0 mg/kg/injection, schedule: Q01DX011 (ip), vehicle: carboxymethylcellulose (CMC)): 42 % of control; T/C (dose: 133.0 mg/kg/injection, schedule: Q01DX011 (ip), vehicle: saline): 42 % of control; T/C [1]: 53 % of control; T/C (dose: 200.0 mg/kg/injection, schedule: Q01DX011 (ip), vehicle: saline): 39 % of control; T/C (dose: 300.0 mg/kg/injection, schedule: Q01DX011 (ip), vehicle: carboxymethylcellulose (CMC)): 24 % of control; T/C (dose: 300.0 mg/kg/injection, schedule: Q01DX011 (ip), vehicle: saline): 34 % of control; T/C (dose: 450.0 mg/kg/injection, schedule: Q01DX011 (ip), vehicle: saline): 21 % of control

Question: What does the source list for CC(=O)[C@@]1(O)CC[C@H]2[C@@H]3C[C@H](C)C4=CC(=O)CC[C@]4(C)[C@H]3[C@@H](O)C[C@@]21C?
Answer: T/C (dose: 7.0 mg/kg/injection, schedule: Q01DX011 (sc), vehicle: steriod suspending solution): 70 % of control; T/C (dose: 8.0 mg/kg/injection, schedule: Q01DX011 (sc), vehicle: steriod suspending solution): 76 % of control; T/C (dose: 14.0 mg/kg/injection, schedule: Q01DX011 (sc), vehicle: steriod suspending solution): 54 % of control; T/C (dose: 16.0 mg/kg/injection, schedule: Q01DX011 (sc), vehicle: steriod suspending solution): 76 % of control; T/C (dose: 450.0 mg/kg/injection, schedule: Q01DX011 (sc), vehicle: steriod suspending solution): 87 % of control
